Experimental data reported in patent publication US20240317777A1, “NOVEL MACROCYCLIC AMINOPYRAZOLE COMPOUNDS AS CDK2 INHIBITORS” (Accutar Biotechnology Inc., priority 2023, published 2024).
Like-named read-outs stand apart in the source and are kept apart here.

What was measured:
[1] = tested on: CCNE1-amplified OVCAR3 cells; assay: Cell growth inhibition of CCNE1-amplified OVCAR3 cells (CellTiter-Glo); format: cell-based; conditions: 6 days
Description: Cell Growth Inhibition of CCNE1-Amplified OVCAR3 Cells
OVCAR3 cells were seeded in 96-well plates at 2000 cells/well in 90 μl of RPM11640 growth medium containing 10% FBS and 1% Penicillin Streptomycin, and then incubated at 37° C. overnight. The following day, the test compound was administered to the cells by using 1000× compound stock solution prepared in DMSO at various concentrations. 1000× compound stock solution was first diluted in culturing medium to 10x, then 10 uL compound medium was added to each well in the cell plates. After administration of the compound, the cells were then incubated at 37° C. for 6 days. Upon completion, the plates were equilibrated at room temperature for approximately 10 minutes. 100 ul of CellTiter-Glo® Reagent (Promega) was added to each well. The plates were then incubated at room temperature for 10 minutes and luminescence was recorded by EnSpire plate reader (PerkinElmer).

[2] = tested on: Phospho-Rb (Ser807/811) in OVCAR3 cells; assay: Phospho-Rb expression inhibition in OVCAR3 cells quantified by In Cell Western; format: cell-based; conditions: read-out: OVCAR-3 pRb IC50
Description: Phospho-Rb Expression Inhibition in OVCAR3 Cells Quantified by in Cell Western
OVCAR3 cells were obtained from American Type Culture Collection (ATCC, HTB-161). OVCAR3 cells were plated in 96-well plates (VWR #10062-900, or Corning #3904) in 90 uL culture medium at a density of 20,000 cells/well in the RPM11640 growth medium containing 10% FBS and 1% Penicillin Streptomycin, and then incubated at 37° C. overnight. The following day, the test compound was administered to the cells by using 1000× compound stock solution prepared in DMSO at various concentrations. 1000× compound stock solution was first diluted in culturing medium to 10x, then 10 uL compound medium was added to each well in the cell plates. After administration of the compound, the cells were then incubated at 37° C. for 24 hours. Upon completion, the cells were washed with PBS briefly. 150 uL/well of 4% formaldehyde was added and the plates were incubated at room temperature for 20 mins. The cells were washed with PBS briefly, and permeabilized with 150 uL/well of ice cold 100% methanol for 10 mins. The cells were washed with PBS briefly and blocked with 100 uL/well LI-COR blocking buffer for 1 hr at room temperature with gentle shaking. The cells were incubated overnight at 4° C. with 50 uL primary antibody rabbit anti-Phospho-Rb (Ser807/811) (1:500, Cell Signaling, #8516) and anti-Rb (1:200, Santa Cruz, sc-73598) diluted in Intercept Blocking Buffer (LI-COR, #927-60001) containing 0.1% Tween 20. The next day, the cells were washed with 200 uL PBS containing 0.1% Tween 20, 5×5 mins at room temperature with gentle shaking, and incubated with 50 uL secondary antibody, IRDye® 800CW Goat anti-Rabbit IgG (1:1000, LI-COR, #926-32211) and IRDye® 680RD Goat anti-Mouse IgG (1:1000, LI-COR, #926-68070), in LI-COR blocking buffer with 0.2% Tween 20 for 1 hr at room temperature with gentle shaking. The cells were washed with 200 uL PBS containing 0.1% Tween 20, 5×5 mins at room temperature with gentle shaking. The cells were washed with PBS for 5 mins. 100 uL fresh PBS was added to each well and the plates were imaged on a LI-COR Odyssey CLX plate reader.

[3] = Homo sapiens, OVCAR-3, 24 hours

`O=C1N[C@H](C(F)(F)F)CCCOc2cc(ccn2)Nc2cc(n[nH]2)[C@H]2CC[C@H](C2)O1` [Compound 127, (1^1S,1^3R,9S,Z)-9-(trifluoromethyl)-2^1H-5,12-dioxa-3,10-diaza-4(4,2)-pyridina-2(3,5)-pyrazola-1(1,3)-cyclopentanacyclododecaphan-11-one] showed an IC50 ([1]; Homo sapiens, OVCAR-3, 144 h) of over 250 nM and an IC50 [2, 3] of over 250 nM.
With `O=C1NC2CC(COc3cncc(n3)Nc3[nH]nc(c3F)[C@H]3CC[C@H](C3)O1)C2` [Compound 236, (1^1S,1^3R,7^1R,7^3S,E)-2^4-fluoro-2^1H-5,10-dioxa-3,8-diaza-4(2,6)-pyrazina-2(3,5)-pyrazola-1(1,3)-cyclopentana-7(1,3)-cyclobutanacyclodecaphan-9-one] the IC50 ([1]; Homo sapiens, OVCAR-3, 144 h) was 10 to 50 nM and the IC50 [2, 3] was 2 to 10 nM.
`CC1CCCNC(=O)OC2CCC(C2)c2cc([nH]n2)Nc2cc(c[n+]([O-])c2)O1` [Compound 154, (1^1S,1^3R,6S,Z)-6-methyl-11-oxo-2^1H-5,12-dioxa-3,10-diaza-4(3,5)-pyridin-1-iuma-2(3,5)-pyrazola-1(1,3)-cyclopentanacyclododecaphane 41-oxide] was tested, and the IC50 [1] was over 250 nM and the IC50 ([2]; 24 hours) was 50 to 250 nM.
`C[C@H]1CCCOc2cncc(n2)Nc2[nH]nc(c2F)[C@H]2CC[C@H](C2)OC(=O)N1` [Compound 234, (1^1S,1^3R,9S,E)-2^4-fluoro-9-methyl-2^1H-5,12-dioxa-3,10-diaza-4(2,6)-pyrazina-2(3,5)-pyrazola-1(1,3)-cyclopentanacyclododecaphan-11-one] gave an IC50 ([1]; Homo sapiens, OVCAR-3, 144 h) of 10 to 50 nM and an IC50 [2, 3] of 2 to 10 nM.
`C[C@H]1CCCOc2nccc(n2)Nc2[nH]nc(c2F)[C@H]2CC[C@H](C2)OC(=O)N1` [Compound 256, (1^1S,1^3R,9S,E)-2^4-fluoro-9-methyl-2^1H-5,12-dioxa-3,10-diaza-4(4,2)-pyrimidina-2(3,5)-pyrazola-1(1,3)-cyclopentanacyclododecaphan-11-one] was tested, and the IC50 ([1]; Homo sapiens, OVCAR-3, 144 h) was 10 to 50 nM and the IC50 [2, 3] was 2 to 10 nM.
For `C[C@H]1CC23CC(C2)(C3)NC(=O)O[C@@H]2CC[C@@H](C2)c2cc(n[nH]2)Nc2cc(nc(C(F)F)c2)O1` [compound 25], the IC50 ([1]; Homo sapiens, OVCAR-3, 144 h) was over 250 nM and the IC50 [2, 3] was over 250 nM.
`C[C@H]1CCCOc2ncc(F)c(c2F)Nc2cc(n[nH]2)[C@H]2CC[C@H](C2)OC(=O)N1` [Compound 180, (1^1S,1^3R,9S,Z)-4^3,4^5-difluoro-9-methyl-2^1H-5,12-dioxa-3,10-diaza-4(4,2)-pyridina-2(3,5)-pyrazola-1(1,3)-cyclopentanacyclododecaphan-11-one] showed an IC50 ([1]; Homo sapiens, OVCAR-3, 144 h) of over 250 nM and an IC50 [2, 3] of over 250 nM.
In the case of `C[C@H]1CCCOc2nccc(n2)Nc2cc(n[nH]2)[C@H]2CC[C@H](C2)OC(=O)N1` [Compound 241, (1^1S,1^3R,9S,Z)-9-methyl-2^1H-5,12-dioxa-3,10-diaza-4(4,2)-pyrimidina-2(3,5)-pyrazola-1(1,3)-cyclopentanacyclododecaphan-11-one], the IC50 ([1]; Homo sapiens, OVCAR-3, 144 h) is reported as at most 2 nM and the IC50 [2, 3] is reported as at most 2 nM.
Compound `C[C@H]1CCCOc2cc(ccn2)Nc2[nH]nc(c2Cl)[C@H]2CC[C@H](C2)OC(=O)N1` [Compound 184, (1^1S,1^3R,9S,E)-2^4-chloro-9-methyl-2^1H-5,12-dioxa-3,10-diaza-4(4,2)-pyridina-2(3,5)-pyrazola-1(1,3)-cyclopentanacyclododecaphan-11-one] has an IC50 ([1]; Homo sapiens, OVCAR-3, 144 h) of over 250 nM and an IC50 [2, 3] of over 250 nM.
Work on `O=C1NC2CCN(CC2)c2cc(ccn2)Nc2cc(n[nH]2)[C@H]2CC[C@H](C2)O1` [Compound 136, (5^1S,5^3R,Z)-4^1H-6-oxa-3,8-diaza-2(2,4)-pyridina-1(1,4)-piperidina-4(5,3)-pyrazola-5(1,3)-cyclopentanacyclooctaphan-7-one] yielded an IC50 ([1]; Homo sapiens, OVCAR-3, 144 h) of over 250 nM and an IC50 [2, 3] of over 250 nM.
`C[C@H]1Oc2cc(ccn2)Nc2cc(n[nH]2)[C@H]2CC[C@H](C2)OC(=O)N[C@H]2C[C@@H]1C2` [Compound 143, (1^1S,1^3R,7^1S,7^3S,6R,Z)-6-methyl-2^1H-5,10-dioxa-3,8-diaza-4(4,2)-pyridina-2(3,5)-pyrazola-1(1,3)-cyclopentana-7(1,3)-cyclobutanacyclodecaphan-9-one] showed an IC50 ([1]; Homo sapiens, OVCAR-3, 144 h) of 50 to 250 nM and an IC50 [2, 3] of 50 to 250 nM.
Work on `C[C@@H]1CCCNC(=O)O[C@@H]2CC[C@@H](C2)c2cc([nH]n2)Nc2cccc(c2)O1` [Compound 156, (1^1S,1^3R,6R,Z)-6-methyl-2^1H-5,12-dioxa-3,10-diaza-2(3,5)-pyrazola-4(1,3)-benzena-1(1,3)-cyclopentanacyclododecaphan-11-one] yielded an IC50 ([1]; Homo sapiens, OVCAR-3, 144 h) of over 250 nM and an IC50 [2, 3] of over 250 nM.
`O=C1NC2CC(COc3cncc(n3)Nc3cc(n[nH]3)[C@H]3CC[C@H](C3)O1)C2` [Compound 235, (1^1S,1^3R,7^1R,7^3S,Z)-2^1H-5,10-dioxa-3,8-diaza-4(2,6)-pyrazina-2(3,5)-pyrazola-1(1,3)-cyclopentana-7(1,3)-cyclobutanacyclodecaphan-9-one] showed an IC50 ([1]; Homo sapiens, OVCAR-3, 144 h) of at most 2 nM and an IC50 [2, 3] of at most 2 nM.
`C[C@H]1CCCOc2cc(cc(F)n2)Nc2cc(n[nH]2)[C@H]2CC[C@H](C2)OC(=O)N1` [Compound 178, (1^1S,1^3R,9S,Z)-4^6-fluoro-9-methyl-2^1H-5,12-dioxa-3,10-diaza-4(4,2)-pyridina-2(3,5)-pyrazola-1(1,3)-cyclopentanacyclododecaphan-11-one] was tested, and the IC50 ([1]; Homo sapiens, OVCAR-3, 144 h) was 50 to 250 nM and the IC50 [2, 3] was 10 to 50 nM.
Compound `C[C@@H]1CCC(C)(C)NC(=O)O[C@@H]2CC[C@@H](C2)c2cc([nH]n2)Nc2ccnc(c2)O1` [Compound 112, (1^1S,1^3R,6R,Z)-6,9,9-trimethyl-2^1H-5,12-dioxa-3,10-diaza-4(4,2)-pyridina-2(3,5)-pyrazola-1(1,3)-cyclopentanacyclododecaphan-11-one] has an IC50 ([1]; Homo sapiens, OVCAR-3, 144 h) of over 250 nM and an IC50 [2, 3] of 50 to 250 nM.
Work on `C[C@@H]1NC(=O)O[C@@H]2CC(C[C@@H]2F)c2n[nH]c(c2F)Nc2ccnc(c2)OCCC1(F)F` [Compound 240, (1^1S,1^3R,1^4S,9S,E)-1^4,2^4,8,8-tetrafluoro-9-methyl-2^1H-5,12-dioxa-3,10-diaza-4(4,2)-pyridina-2(3,5)-pyrazola-1(1,3)-cyclopentanacyclododecaphan-11-one] yielded an IC50 [2, 3] of 10 to 50 nM.
For `C[C@@H]1NC(=O)O[C@@H]2C[C@@H](C[C@@H]2F)c2cc([nH]n2)Nc2ccnc(c2)OCCC1(F)F` [Compound 227, (1^1S,1^3R,1^4S,9S,Z)-1^4,8,8-trifluoro-9-methyl-2^1H-5,12-dioxa-3,10-diaza-4(4,2)-pyridina-2(3,5)-pyrazola-1(1,3)-cyclopentanacyclododecaphan-11-one], the IC50 [2, 3] was 10 to 50 nM.
With `C[C@@H]1NC(=O)O[C@H]2C[C@H](C[C@H]2F)c2cc([nH]n2)Nc2ccnc(c2)OCCC1(F)F` [Compound 226, (1^1R,1^3S,1^4R,9S,Z)-1^4,8,8-trifluoro-9-methyl-2^1H-5,12-dioxa-3,10-diaza-4(4,2)-pyridina-2(3,5)-pyrazola-1(1,3)-cyclopentanacyclododecaphan-11-one] the IC50 [2, 3] was 2 to 10 nM.
`C[C@H]1CCCOc2cncc(n2)Nc2cc(n[nH]2)C2C[C@@H](F)[C@H](C2)OC(=O)N1` [Compound 242, (1^1R,1^3S,1^4R,9S,Z)-1^4-fluoro-9-methyl-2^1H-5,12-dioxa-3,10-diaza-4(2,6)-pyrazina-2(3,5)-pyrazola-1(1,3)-cyclopentanacyclododecaphan-11-one] was tested, and the IC50 [2, 3] was at most 2 nM.
In the case of `C[C@H]1CCCOc2cncc(n2)Nc2[nH]nc(c2F)C2C[C@@H](F)[C@H](C2)OC(=O)N1` [Compound 243, (1^1R,1^3S,1^4R,9S,E)-1^4,2^4-difluoro-9-methyl-2^1H-5,12-dioxa-3,10-diaza-4(2,6)-pyrazina-2(3,5)-pyrazola-1(1,3)-cyclopentanacyclododecaphan-11-one], the IC50 [2, 3] is reported as at most 2 nM.
Work on `C[C@@H]1NC(=O)O[C@H]2CC(C[C@H]2F)c2n[nH]c(c2F)Nc2ccnc(c2)OCCC1(F)F` [Compound 239, (1^1R,1^3S,1^4R,9S,E)-1^4,2^4,8,8-tetrafluoro-9-methyl-2^1H-5,12-dioxa-3,10-diaza-4(4,2)-pyridina-2(3,5)-pyrazola-1(1,3)-cyclopentanacyclododecaphan-11-one] yielded an IC50 [2, 3] of 10 to 50 nM.
